Several values for one entry are separate records, joined by “and”; a condition that tells them apart may be missing. Equal entries are not always repeated.
Experiments:
[1] = Average particle size (ζ-Average) and PDI by dynamic light scattering (Zetasizer Nano ZSP); format: physicochemical; conditions: for Particle size (nm), immediately after the preparation: pDNA (eGFP)-loaded LNP
How it was run: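 Lipid nanoparticles dispersed in PBS(−) were sized by dynamic light scattering, giving the ζ-Average diameter and polydispersity index (PDI).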

[2] = siRNA/mRNA encapsulation rate by Ribogreen reagent (section IV); format: physicochemical; conditions: for % siRNA encapsulation: F7siRNA-loaded LNP, 50:10:38.5:1.5, N/P ratio 6; for % mRNA encapsulation: FlucmRNA-loaded LNP, 50:10:38.5:1.5
How it was run: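 LNPs diluted in TE buffer to 8 μg/mL nucleic acid for surface RNA, or to 1.2 μg/mL with 1% Triton X-100 for total RNA. RiboGreen fluorescence (ex 485/em 528 nm) quantified against a Triton-containing standard curve (0-2.5 μg/mL). Encapsulation % = (total − surface)/total × 100.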

liver = assay: In vivo Fluc activity of FlucmRNA-loaded LNP by in vivo imaging, liver; conditions: Balb/c mice, 6 hours; for Fluc Activity in liver: FlucmRNA-loaded LNP i.v. 0.1 mg mRNA/kg
How it was run: (§1)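 Female Balb/c mice, 7 weeks old, received LNP i.v. at 0.1 mg mRNA/kg. At 6 h, luciferin was given via tail vein at 1.5 mg per mouse, and liver and spleen luminescence was imaged as Avg Radiance [p/s/cm2/sr] near 560 nm.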

spleen = assay: In vivo Fluc activity of FlucmRNA-loaded LNP by in vivo imaging, spleen; conditions: Balb/c mice, 6 hours; for Fluc activity in the spleen, compared with CL4F6: 0.1 mg mRNA/kg, versus LNP comprising CL4F6 (Tables 5 and 6); for Fluc Activity in spleen: FlucmRNA-loaded LNP i.v. 0.1 mg mRNA/kg
How it was run: as §1

F7 = assay: In vivo F7 knockdown, plasma F7 enzyme activity (BIOPHEN FVII), Balb/c mice; conditions: i.v. 0.025 mg siRNA/kg, plasma at 24 hours; for F7 enzyme activity (%): untreated mice as 100%
How it was run: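 Female Balb/c mice, 5 weeks old, received F7 siRNA lipid nanoparticles i.v. at 0.025 mg siRNA/kg; plasma F7 activity measured chromogenically (BIOPHEN FVII) 24 h later. Values are % of untreated mice, also expressed as a ratio to MC3-containing nanoparticles set at 1.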

[3] = pDNA encapsulation rate by Picogreen reagent; format: physicochemical; conditions: pDNA (eGFP)-loaded LNP
Experimental: The encapsulation rate of pDNA of the lipid nanoparticles was measured using Picogreen (registered trademark) reagent (Quant-iT™ dsDNA Assay Kit, broad range, manufactured by Thermofisher Scientific). In encapsulation rate measurement of pDNA, the nucleic acid concentration in solution for measuring nanoparticle surface nucleic acid concentration was set at 1.6 μg/mL, the nucleic acid concentration in solution for measuring total nucleic acid concentration […], and the nucleic acid concentration used for calibration curve 0-0.5 μg/mL, and the same method as the method for measuring encapsulation rate of siRNA and mRNA was carried out except that Picogreen (registered trademark) reagent (Quant-iT™ dsDNA Assay Kit, broad range, manufactured by Thermofisher Scientific) was used as measurement reagent. Encapsulation rate %=(nucleic acid concentration in solution for measuring total nucleic acid concentration (μg/mL)−nucleic acid concentration in solution for measuring nanoparticle surface nucleic acid concentration (μg/mL))/(nucleic acid concentration in solution for measuring total nucleic acid concentration (μg/mL))×100. <Results>

[4] = Stability of pDNA-loaded LNP standing at 40° C.; format: physicochemical; conditions: for Quality 40° C. 1 M / Quality 40° C. 1 W: pDNA-loaded LNP; for Particle size (nm), 40° C. 1 M / encapsulation rate (%), 40° C. 1 M: pDNA-loaded LNP after standing at 40° C. 1 M; for Particle size (nm), 40° C. 1 W / encapsulation rate (%), 40° C. 1 W: pDNA-loaded LNP after standing at 40° C. 1 W
Experimental: Prepared lipid nanoparticles were allowed to stand at 40° C., and after keeping for each period, they were evaluated whether quality was well remained according to the following criteria: • Good (O): particle size is within +/−20 nm of the particle size immediately after preparation, and PDI is 0.2 or less, and encapsulation rate is 80% or more; • No good (X): particle size is greater than +/−20 nm of the particle size immediately after preparation, or encapsulation rate is less than 80%.
The lipid nanoparticles which remain in good quality with standing at 40° C. for one week or more can be evaluated as having excellent stability.

[5] = Storage stability of FlucmRNA-loaded LNP at −80, 5, 25 and 40° C.; format: physicochemical; conditions: for period for which quality remained good, −80° C.: maximum storage period 1 week; for period for which quality remained good, 5° C. / period for which quality remained good, 25° C. / period for which quality remained good, 40° C. (weeks): maximum storage period 5 weeks
How it was run: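 FlucmRNA-loaded LNPs held at −80, 5, 25 or 40° C; at each time point size, PDI and encapsulation measured. Quality deemed maintained while size stays within ±20 nm of preparation day, PDI ≤0.2 and encapsulation ≥80%; value is the period meeting all three.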

factor VII (F7) = conditions: mouse liver; lipid as LNP carrier of siRNA; cited from earlier work
[6] = F7siRNA-loaded LNP, 50:10:38.5:1.5, N/P ratio 6
[7] = FlucmRNA-loaded LNP, 50:10:38.5:1.5
[8] = FlucmRNA-loaded LNP, lipid:DSPC:cholesterol:DMG-PEG2K 50:10:38.5:1.5

CCCCCCC(CCCC)C(=O)OCCCCCCC(O)(CCCCCCOC(=O)C(CCCC)CCCCCC)CCCCN(CCC)CCC (stereo not drawn) [CL4F 8-4]
PDI [1, 6]: 0.006
ζ-Average (nm) [1, 6]: 110.00 nm
PDI [1, 7]: 0.020
ζ-Average (nm) [1, 8]: 101.60 nm
Particle size (nm), immediately after the preparation ([1]; 50:10:38.5:1.5): 104.7 nm
% siRNA encapsulation [2]: 100.0%
% mRNA encapsulation [2]: 99.7%
Fluc Activity in liver (liver): 6.09E+07 Avg Radiance [p/s/cm2/sr]
Fluc activity in the spleen, compared with CL4F6 (spleen): higher Fluc activity
Fluc Activity in spleen (spleen): 1.41E+07 Avg Radiance [p/s/cm2/sr]
F7 enzyme activity (%) (F7): 5.6%
encapsulation rate (%), immediately after the preparation [3]: 98.0%
Quality 40° C. 1 M [4]: ∘
Quality 40° C. 1 W [4]: ∘
Particle size (nm), 40° C. 1 M [4]: 116.4 nm
encapsulation rate (%), 40° C. 1 M [4]: 98.1%
Particle size (nm), 40° C. 1 W [4]: 109.1 nm
encapsulation rate (%), 40° C. 1 W [4]: 97.8%
period for which quality remained good, −80° C. [5]: 1 week
period for which quality remained good, 5° C. [5]: 5 weeks
period for which quality remained good, 25° C. [5]: 5 weeks
period for which quality remained good, 40° C. (weeks) [5]: 1 week weeks

CCCCCCCC(CCCCCCC)C(=O)OCCCCCCC(O)(CCCCCCOC(=O)C(CCCCCCC)CCCCCCC)CCCCN(CCC)CCC [CL4F 9-7]
PDI [1, 6]: 0.020
ζ-Average (nm) [1, 6]: 97.03 nm
PDI [1, 7]: 0.004
ζ-Average (nm) [1, 8]: 81.30 nm
Particle size (nm), immediately after the preparation ([1]; 50:10:38.5:1.5): 98.2 nm
% siRNA encapsulation [2]: 99.9%
% mRNA encapsulation [2]: 99.2%
Fluc activity in the liver, compared with CL4F6 (liver; 0.1 mg mRNA/kg, versus LNP comprising CL4F6 (Tables 5 and 6)): higher Fluc activity
Fluc Activity in liver (liver): 1.55E+08 Avg Radiance [p/s/cm2/sr]
Fluc Activity in spleen (spleen): 2.43E+06 Avg Radiance [p/s/cm2/sr]
F7 enzyme activity (%) (F7): 4.3%
encapsulation rate (%), immediately after the preparation [3]: 98.1%
Quality 40° C. 1 M [4]: ∘
Quality 40° C. 1 W [4]: ∘
Particle size (nm), 40° C. 1 M [4]: 101.4 nm
encapsulation rate (%), 40° C. 1 M [4]: 98.1%
Particle size (nm), 40° C. 1 W [4]: 97.1 nm
encapsulation rate (%), 40° C. 1 W [4]: 98.0%
period for which quality remained good, −80° C. [5]: 1 week
period for which quality remained good, 5° C. [5]: 5 weeks
period for which quality remained good, 25° C. [5]: 5 weeks
period for which quality remained good, 40° C. (weeks) [5]: 5 weeks

CCCCCCCCC(CCCCC)C(=O)OCCCCCCC(O)(CCCCCCOC(=O)C(CCCCC)CCCCCCCC)CCCCN(CCC)CCC (stereo not drawn) [CL4F 10-5]
PDI [1, 6]: 0.006
ζ-Average (nm) [1, 6]: 98.70 nm
PDI [1, 7]: 0.021
ζ-Average (nm) [1, 8]: 84.62 nm
Particle size (nm), immediately after the preparation ([1]; 50:10:38.5:1.5): 101.6 nm
% siRNA encapsulation [2]: 100.1%
% mRNA encapsulation [2]: 99.7%
Fluc Activity in liver (liver): 1.06E+08 Avg Radiance [p/s/cm2/sr]
Fluc activity in the spleen, compared with CL4F6 (spleen): higher Fluc activity
Fluc Activity in spleen (spleen): 4.64E+06 Avg Radiance [p/s/cm2/sr]
F7 enzyme activity (%) (F7): 3%
encapsulation rate (%), immediately after the preparation [3]: 98.2%
Quality 40° C. 1 M [4]: ∘
Quality 40° C. 1 W [4]: ∘
Particle size (nm), 40° C. 1 M [4]: 104.2 nm
encapsulation rate (%), 40° C. 1 M [4]: 98.5%
Particle size (nm), 40° C. 1 W [4]: 101.0 nm
encapsulation rate (%), 40° C. 1 W [4]: 98.3%
period for which quality remained good, −80° C. [5]: 1 week
period for which quality remained good, 5° C. [5]: 5 weeks
period for which quality remained good, 25° C. [5]: 5 weeks
period for which quality remained good, 40° C. (weeks) [5]: 5 weeks

CCCCCC/C=C\COC(=O)CCCCCCCC(CCCCCCCC(=O)OC/C=C\CCCCCC)OC(=O)CCCN(C)C [L319]
ED50 in F7 knockdown (factor VII (F7)): 0.01 mg siRNA/kg

CCCCC/C=C\C/C=C\CCCCCCCCC(CCCCCCCC/C=C\C/C=C\CCCCC)OC(=O)CCCN(C)C [MC3, D-Lin-MC3-DMA, reference compound]
ζ-Average (nm) [1, 6]: 81.68 nm and 85.73 nm and 87.69 nm
PDI [1, 7]: 0.042 and 0.072
ζ-Average (nm) [1, 8]: 68.60 nm and 71.49 nm
% siRNA encapsulation [2]: 99.1% and 97.6%
% mRNA encapsulation [2]: 99.0% and 99.04%
F7 enzyme activity (Ratio using MC3 as 1) (F7; relative plasma F7 activity of MC3 LNP as 1): 1
F7 enzyme activity (%) (F7): 2.5%
period for which quality remained good, −80° C. [5]: 0 week
period for which quality remained good, 5° C. [5]: 0 weeks
period for which quality remained good, 25° C. [5]: 1 weeks
period for which quality remained good, 40° C. (weeks) [5]: 0 weeks
ED50 in F7 knockdown (factor VII (F7)): 0.005 mg siRNA/kg

CCCCC/C=C\C/C=C\CCCCCCCCOC1(OCCCCCCCC/C=C\C/C=C\CCCCC)CCN(C)CC1 [YSK05]
ED50 in F7 knockdown (factor VII (F7)): 0.06 mg siRNA/kg

CCCCCCCCCCC(O)CN(CCCCC1NC(=O)C(CCCCN(CC(O)CCCCCCCCCC)CC(O)CCCCCCCCCC)NC1=O)CC(O)CCCCCCCCCC (stereo not drawn) [cKK-E12]
ED50 in F7 knockdown (factor VII (F7)): 0.002 mg siRNA/kg
